Assays:
[1] = Self-immolation kinetics of the S-S linker and payload release after DTT, by HPLC; type: physicochemical; settings: DTT in 50 mM phosphate buffer, 150 mM NaCl, pH 7.4; HPLC at 0.5-48 h, UV 220/280/325 nm
Procedure: Figure S3. Kinetics of self-immolation of 2pHLIP-dMSA. […] Starting 2pHLIP-dMSA is shown on A.
Figure S4. Self-immolation kinetics of pHLIP-mMSA. HPLC chromatograms recorded at 280 nm and 325 nm for pHLIP-mMSA treated with DTT dissolved in 50 mM phosphate buffer containing 150 mM NaCl pH 7.4 at different time points ([…]) after addition of DTT (A-G) and the retention time for mMSA (H) and pHLIP (I) are shown. Starting pHLIP-mMSA is shown on A.

[2] = Stopped-flow fluorescence kinetics of membrane insertion and exit; type: physicochemical; settings: POPC liposomes
Procedure: Fluorescence kinetics was measured using a SFM-300 mixing system (Bio-Logic Science Instruments) in combination with the MOS-450 spectrometer with the temperature control set to 25°C. All samples were degassed before measurement to minimize air bubbles in the samples. pHLIP-mMSA/2pHLIP-dMSA and POPC samples were incubated overnight to reach equilibrium, when most of the agent was associated with liposome lipid bilayers. […] To follow exit of pHLIP-mMSA/2pHLIP-dMSA from the membrane, a low pH solution containing 14 μM pHLIP-mMSA/2pHLIP-dMSA and 2.8 mM POPC was mixed with dibasic phosphate buffer to raise the pH from 4 to 7.4. To monitor the fluorescence intensity changes during pHLIP-mMSA/2pHLIP-dMSA insertion induced by the pH change, the emission signal was observed through a cut-off 320 nm filter at an excitation of 295 nm.

[3] = system: THP-1-Blue-ISG cells polarized into M2-type macrophages; assay: Activation of IFN (IRF-SEAP reporter) in M2-polarized macrophages; type: cell-based, human; settings: THP1-Blue-ISG cells polarized by PMA, IL-4/IL-13, 2 h in DMEM without FBS pH 6.9, then 48 h, QUANTI-Blue, absorbance 655 nm, read-out: EC50 of activation of IRF signaling
Procedure: THP-1-Blue™-ISG cells (Invivogen) expressing an interferon (IFN) regulatory factor (IRF)-inducible secreted embryonic alkaline phosphatase (SEAP) reporter construct were used. Cells were maintained in RPMI growth medium supplemented with L-glutamine, sodium pyruvate, 10% fetal bovine serum (FBS), normocin and ciprofloxacin hydrochloride in a humidified atmosphere of 5% CO2 and 95% air at 37°C. Cells were seeded in 96-well plates at a density of 75,000 cells/well. To generate M2 polarized macrophages, cells were treated first with 185 ng/mL phorbol 12-myristate 13-acetate (PMA) for 6 h and then 20 ng/mL of interleukin 4 (IL-4) and 20 ng/mL of interleukin 13 (IL-13) (both from PeproTech) were added for another 16 h of treatment. […] After a 2-h incubation, an equal volume of RPMI supplemented with 20% heat-inactivated FBS was added, and cells were incubated for another 48 h. SEAP activity was accessed using the QUANTI-Blue™ Solution (Invivogen) to evaluate type I interferon protein levels: 150 μL of the colorimetric reagent was added to 50 μL of cell supernatant for 30 min, 37°C, followed by absorption measurement at 655 nm.

[4] = Blood clearance (PK) by whole blood fluorescence imaging; type: in vivo, Balb/c mice
Procedure: For biodistribution studies 5 × 10^4 of CT26 cancer cells were injected SQ in 100 µL of growth medium into the right flank of female Balb/c mice and tumors were grown until they reached 150–250 mm^3 in volume. Then a single retro-orbital (RO) injection of 50 μM 100 μL of 2(ICG-pHLIP)-dMSA was performed. Animals were euthanized at 5 min, 1, 4, 24, 48, 72, and 120 h post-injection, blood was collected in K2 EDTA vacutainer blood collection tubes (BD), and necropsy was performed immediately after animals were euthanized. Blood, tumors and major organs (kidney, liver, spleen, pancreas, lung, heart, large and small intestines, bone, muscle, brain) were collected, and imaged ex vivo immediately after necropsy. Blood (200 µL) was imaged in 96-well plates with black bottom and walls.
The in vivo and ex vivo bright field and near-infrared fluorescent imaging employed a Stryker 1588 AIM endoscopic system with L10 AIM Light Source (808 nm excitation and collection of light in the range of approximately of 815–850 nm), and a 1588 AIM Camera using a 10 mm scope. The lens was kept at a fixed distance from the surface of the organs, within an enclosed (light-protected) area. Calibration curves converting laser and gain settings were established by imaging of pHLIP-ICG solution at different concentrations. The ex vivo fluorescence imaging of tissue specimens was performed using three different laser settings and six different gain settings. The digital fluorescence images were split into RGB channels, with the green channel being analyzed using ImageJ program to calculate the average fluorescence intensity. All average intensities were adjusted based on their capture settings and using calibration curves to present fluorescence intensities corresponding to the unified (the same) settings.

[5] = Stability in human plasma; type: in vitro ADME; settings: single donor human plasma, 200 µM, 0-24 h at 37°C, methanol precipitation, HPLC C18, UV 220/280/325 nm
Procedure: Plasma proteins were precipitated by methanol (1:5 volume ratio of plasma to methanol) and centrifuged for 10 min at 13.4 rpm. The supernatant was collected and analyzed by HPLC using a Zorbax SB-C18 4.6 × 250 mm, 5 μm column with a gradient from 20% to 80% acetonitrile in water containing 0.05% TFA. Chromatograms were recorded at 220 nm, 280 nm and 325 nm.

[6] = system: CT26 cancer cells; assay: Re-challenge of tumor-free mice with CT26 cancer cells; type: in vivo, Balb/c mice; settings: 11 survivors of both dose groups, contralateral flank, kept 40 more days
From the text: In the 2pHLIP-dMSA treated groups the mice that stayed tumor-free were re-challenged with tumor cells injected into the tumor-free flank on day 65 after the first injection of 2pHLIP-dMSA. Tumor-free mice were kept for an additional 40 days (total of 105 days after the treatment with 2pHLIP-dMSA) and then were euthanized.

[7] = Body weight of treated mice; type: in vivo, Balb/c mice; settings: two IP injections, 300 µM or 100 µM 500 µL, days 1 and 3
Procedure: For the treatment of CT26 tumors, 5 × 10^4 CT26 murine colorectal cancer cells (ATCC, CRL-2638) were injected subcutaneously (SQ) in 100 μL of growth medium into the right flank of female Balb/c mice ranging in age from 7 to 9 weeks (Envigo RMS, Inc.). […] 2pHLIP-dMSA was given as two IP injections of 300 μM 500 μL or 100 μM 500 μL (low dose). The compounds were dissolved in DMSO as a stock solution and transferred to PBS (vehicle). The residual DMSO in the final solution injected into animals was less than 2%. Tumor volume and body weight were measured 3 times per week throughout the study. Measurements of tumors were performed using calipers, and the tumor volume (V) was calculated with the formula: V=0.52∙L∙W^2 where L is the length and W is the width of the measured tumor. Mice were removed from the study and euthanized when the tumor volume was greater than 2,000 mm^3.

## ADQDNPWRAYLDLLFPTDTLLLDLLWCG [2pHLIP-dMSA]
[1]
  time to completion of linker self-immolation and release of payload in its original form: ≤ 48 h
[2]; pH drop from pH 7.4 to 4, 25°C, fluorescence ex 295 nm
  time to completion of insertion into the lipid bilayer: ≤ 100 ms
[2]; pH drop from pH 7.4 to 6, compared with pHLIP-mMSA
  kinetics of membrane insertion (in words): more efficient and faster than the insertion of pHLIP-mMSA
[2]; pH rise from pH 4 to 7.4 and from pH 4 to 5.5, compared with pHLIP-mMSA
  exit from the lipid bilayer (in words): slightly slower
[3]
  EC50: 200 nM
[4]; mice, stated in discussion
  circulation in the blood: 1 to 2 days
[4]; single RO injection of 2(ICG-pHLIP)-dMSA 50 µM 100 µL, CT26 tumor-bearing female Balb/c mice, whole blood fluorescence, exponential fit
  blood clearance half-life: > 30 h
[5]
  stability in human plasma (in words): very high
[6]
  tumor development after re-injection of cancer cells on day 65: none of them developed tumors
[7]
  body weight change after treatment (in words): temporary weight loss followed by complete recovery and regain of weight

Reference: paper PMC10940318, “Targeted intracellular delivery of dimeric STINGa by two pHLIP peptides for treatment of solid tumors” (Frontiers in Pharmacology, 2024)
